Tested on: Hedgehog pathway
Assay: Hedgehog Pathway Cellular Differentiation Assay (alkaline phosphatase production in C3H10T1/2 cells with Shh ligand)
Assay type: cell-based
Conditions: Mus musculus, C3H 10T1/2, 3 μM compound, Shh ligand conditioned media, 72 h, alkaline phosphatase
Method: Hedgehog Pathway Cellular Differentiation Assay The ability of compounds of the invention to inhibit the Hedgehog pathway can be determined by the following cell differentiation assay. C3H10T1/2 cells were plated into 384 well plates at a concentration of 5000 cells/well in DMEM/10% FBS. The following day the media was changed to 20% conditioned media (low serum media DMEM/2% FBS+Shh ligand). Compounds were solubilized in 100% DMSO to a concentration of 10 mM and then serially diluted three fold in 100% DMSO. The highest concentration in the cell plate was 30 μM and the lowest was 3 nM. The compounds were then added to the cells. Cell plates were incubated with the compound for 72 h and then assayed for alkaline phosphatase production using pNp as a substrate. Briefly, after 72 h of incubation, the media was aspirated from the cells and washed with 30 μl of PBS. PBS was aspirated off the cells and 15 μl of 1×RIPA cell lysis buffer is added on to the cells. The cell plates are then incubated at −80° C. for 30 minutes to insure proper cell lysis. The plates were then thawed back to RT. The substrate solution containing pNp at 1 mg/mL in diethanolamine buffer pH 9.8 was then added onto the lysed cells. The plates were incubated at 30° C. for color development and read at an absorbance of 405 nm. The percent inhibition and IC50 value was then calculated from the absorbance data using standard procedures.

## Cc1cc(Cl)c(-c2nccn2C)cc1NC(=O)c1ccc(OCc2ccccn2)cc1 [Example 74, N-[4-chloro-2-methyl-5-(1-methyl-1H-imidazol-2-yl)phenyl]-4-(pyridin-2-ylmethoxy)benzamide]
  inhibition at 3 µM: 76.2%

## Cc1cc(Cl)c(-c2cn(C)cn2)cc1NC(=O)c1ccc(OCc2ccccn2)cc1 [Example 75, N-[4-chloro-2-methyl-5-(1-methyl-1H-imidazol-4-yl)phenyl]-4-(pyridin-2-ylmethoxy)benzamide]
  inhibition at 3 µM: 77.8%

## Cc1cc(Cl)c(-c2ncc[nH]2)cc1NC(=O)c1ccc(OCc2ccccn2)cc1 [Example 76, N-[4-chloro-5-(1H-imidazol-2-yl)-2-methylphenyl]-4-(pyridin-2-ylmethoxy)benzamide]
  inhibition at 3 µM: 77.6%

## Cc1cc(Cl)c(-c2cn(C)c(C)n2)cc1NC(=O)c1ccc(OCc2ccccn2)cc1 [Example 77, N-[4-chloro-5-(1,2-dimethyl-1H-imidazol-4-yl)-2-methylphenyl]-4-(pyridin-2-ylmethoxy)benzamide]
  inhibition at 3 µM: 86.1%

## Cc1ccc(-c2ncn(C)c2CO)cc1NC(=O)c1ccc(OCc2ccccn2)cc1 [Example 78, N-{5-[5-(hydroxymethyl)-1-methyl-1H-imidazol-4-yl]-2-methylphenyl}-4-(pyridin-2-ylmethoxy)benzamide]
  inhibition at 3 µM: 75.1%

## Cc1cc(C)c(-c2ncn(C)c2CO)cc1NC(=O)c1ccc(OCc2ccccn2)cc1 [Example 79, N-(5-(5-(hydroxymethyl)-1-methyl-1H-imidazol-4-yl)-2,4-dimethylphenyl)-4-(pyridin-2-ylmethoxy)benzamide]
  inhibition at 3 µM: 85.9%

## CNCc1c(-c2ccc(C)c(NC(=O)c3ccc(OCc4ccccn4)cc3)c2)ncn1C [Example 80, N-(2-methyl-5-{1-methyl-5-[(methylamino)methyl]-1H-imidazol-4-yl}phenyl)-4-(pyridin-2-ylmethoxy)benzamide]
  inhibition at 3 µM: 57.1%

## Cc1ccc(-c2nc(-c3ccccc3)c[nH]2)cc1NC(=O)c1ccc(OCc2ccccn2)cc1 [Example 81, N-[2-methyl-5-(4-phenyl-1H-imidazol-2-yl)phenyl]-4-(pyridin-2-ylmethoxy)benzamide]
  inhibition at 3 µM: 78.8%

## Cc1ccc(-c2nc(-c3nccs3)c[nH]2)cc1NC(=O)c1ccc(OCc2ccccn2)cc1 [Example 82, N-{2-methyl-5-[4-(1,3-thiazol-2-yl)-1H-imidazol-2-yl]phenyl}-4-(pyridin-2-ylmethoxy)benzamide]
  inhibition at 3 µM: 68.6%

## Cc1ccc(-c2nc(-c3ccc(N4CCCC4)cc3)c[nH]2)cc1NC(=O)c1ccc(OCc2ccccn2)cc1 [Example 83, N-{2-methyl-5-[4-(4-pyrrolidin-1-ylphenyl)-1H-imidazol-2-yl]phenyl}-4-(pyridin-2-ylmethoxy)benzamide]
  inhibition at 3 µM: 15.1%

## Cc1ccc(-c2nc(-c3cccnc3)c[nH]2)cc1NC(=O)c1ccc(OCc2ccccn2)cc1 [Example 84, N-[2-methyl-5-(4-pyridin-3-yl-1H-imidazol-2-yl)phenyl]-4-(pyridin-2-ylmethoxy)benzamide]
  inhibition at 3 µM: 79.6%

## CCc1c[nH]c(-c2ccc(C)c(NC(=O)c3ccc(OCc4ccccn4)cc3)c2)n1 [Example 85, N-[5-(4-ethyl-1H-imidazol-2-yl)-2-methylphenyl]-4-(pyridin-2-ylmethoxy)benzamide]
  inhibition at 3 µM: 78.8%

## Cc1ccc(-c2nc(C(C)(C)C)c[nH]2)cc1NC(=O)c1ccc(OCc2ccccn2)cc1 [Example 86, N-[5-(4-tert-butyl-1H-imidazol-2-yl)-2-methylphenyl]-4-(pyridin-2-ylmethoxy)benzamide]
  inhibition at 3 µM: 85.7%

## Cc1ccc(-c2nc(C3CC3)c[nH]2)cc1NC(=O)c1ccc(OCc2ccccn2)cc1 [Example 87, N-[5-(4-cyclopropyl-1H-imidazol-2-yl)-2-methylphenyl]-4-(pyridin-2-ylmethoxy)benzamide]
  inhibition at 3 µM: 74.8%

## Cc1ccc(-c2nc(CO)c[nH]2)cc1NC(=O)c1ccc(OCc2ccccn2)cc1 [Example 88, N-{5-[4-(hydroxymethyl)-1H-imidazol-2-yl]-2-methylphenyl}-4-(pyridin-2-ylmethoxy)benzamide]
  inhibition at 3 µM: 84.7%

## Cc1ccc(-c2ncc[nH]2)cc1NC(=O)c1ccc(OCc2cc(N3CCOCC3)ccn2)cc1 [Example 89, N-[5-(1H-imidazol-2-yl)-2-methylphenyl]-4-[(4-morpholin-4-ylpyridin-2-yl)methoxy]benzamide]
  inhibition at 3 µM: 72.7%

## Cc1ccc(-c2ncc[nH]2)cc1NC(=O)c1ccc(OCc2cc(N3CCN(CCO)CC3)ccn2)cc1 [Example 90, 4-({4-[4-(2-hydroxyethyl)piperazin-1-yl]pyridin-2-yl}methoxy)-N-[5-(1H-imidazol-2-yl)-2-methylphenyl]benzamide]
  inhibition at 3 µM: 61.5%

## Cc1ccc(-c2nccn2C)cc1NC(=O)c1ccc(OCc2cc(Cl)ccn2)cc1 [Example 91, 4-[(4-chloropyridin-2-yl)methoxy]-N-[2-methyl-5-(1-methyl-1H-imidazol-2-yl)phenyl]benzamide]
  inhibition at 3 µM: 80.4%

## COc1ccnc(COc2ccc(C(=O)Nc3cc(-c4ncc[nH]4)ccc3C)cc2)c1 [Example 92, N-[5-(1H-imidazol-2-yl)-2-methylphenyl]-4-[(4-methoxypyridin-2-yl)methoxy]benzamide]
  inhibition at 3 µM: 76%

## COc1ccnc(COc2ccc(C(=O)Nc3cc(-c4nccn4C)ccc3C)cc2)c1 [Example 93, 4-[(4-methoxypyridin-2-yl)methoxy]-N-[2-methyl-5-(1-methyl-1H-imidazol-2-yl)phenyl]benzamide]
  inhibition at 3 µM: 79.9%

## Cc1ccc(-c2ncc[nH]2)cc1NC(=O)c1ccc(OCc2cc(OCCN(C)C)ccn2)cc1 [Example 94, 4-({4-[2-(dimethylamino)ethoxy]pyridin-2-yl}methoxy)-N-[5-(1H-imidazol-2-yl)-2-methylphenyl]benzamide]
  inhibition at 3 µM: 56.7%

## Cc1ccc(-c2ncc[nH]2)cc1NC(=O)c1ccc(OCc2cc(OCCN3CCCCC3)ccn2)cc1 [Example 95, N-[5-(1H-imidazol-2-yl)-2-methylphenyl]-4-{[4-(2-piperidin-1-ylethoxy)pyridin-2-yl]methoxy}benzamide]
  inhibition at 3 µM: 47%

## Cc1ccc(-c2nccn2C)cc1NC(=O)c1ccc(OCc2cc(Oc3ccccc3)ccn2)cc1 [Example 96, N-[2-methyl-5-(1-methyl-1H-imidazol-2-yl)phenyl]-4-[(4-phenoxypyridin-2-yl)methoxy]benzamide]
  inhibition at 3 µM: 79.8%

## CCOc1ccnc(COc2ccc(C(=O)Nc3cc(-c4nccn4C)ccc3C)cc2)c1 [Example 97, 4-[(4-ethoxypyridin-2-yl)methoxy]-N-[2-methyl-5-(1-methyl-1H-imidazol-2-yl)phenyl]benzamide]
  inhibition at 3 µM: 81.9%

## Cc1ccc(-c2nccn2C)cc1NC(=O)c1ccc(OCc2cc(OCC3CC3)ccn2)cc1 [Example 98, 4-{[4-(cyclopropylmethoxy)pyridin-2-yl]methoxy}-N-[2-methyl-5-(1-methyl-1H-imidazol-2-yl)phenyl]benzamide]
  inhibition at 3 µM: 78.4%

## Cc1ccc(-c2nccn2C)cc1NC(=O)c1ccc(OCc2ccc(Br)cc2C#N)cc1 [Example 99, 4-[(4-bromo-2-cyanobenzyl)oxy]-N-[2-methyl-5-(1-methyl-1H-imidazol-2-yl)phenyl]benzamide]
  inhibition at 3 µM: 29.9%

## Cc1ccc(-c2nccn2C)cc1NC(=O)c1ccc(OCc2ccc(F)cc2C#N)cc1 [Example 100, 4-[(2-cyano-4-fluorobenzyl)oxy]-N-[2-methyl-5-(1-methyl-1H-imidazol-2-yl)phenyl]benzamide]
  inhibition at 3 µM: 82.7%

## Cc1ccc(-c2nccn2C)cc1NC(=O)c1ccc(OCc2cc(F)ccc2C#N)cc1 [Example 101, 4-[(2-cyano-5-fluorobenzyl)oxy]-N-[2-methyl-5-(1-methyl-1H-imidazol-2-yl)phenyl]benzamide]
  inhibition at 3 µM: 83.5%

## Cc1cc(F)c(-c2ncc[nH]2)cc1NC(=O)c1ccc(OCc2ccccn2)cc1 [Example 102, N-[4-fluoro-5-(1H-imidazol-2-yl)-2-methylphenyl]-4-(pyridin-2-ylmethoxy)benzamide]
  inhibition at 3 µM: 87.1%

## Cc1nc(-c2cc(NC(=O)c3ccc(OCc4ccccn4)cc3)c(C)cc2F)c[nH]1 [Example 103, N-[4-fluoro-2-methyl-5-(2-methyl-1H-imidazol-4-yl)phenyl]-4-(pyridin-2-ylmethoxy)benzamide]
  inhibition at 3 µM: 85.6%

## O=C(Nc1cc(-c2ncc[nH]2)ccc1Cl)c1ccc(OCc2ccccn2)cc1 [Example 105, N-[2-chloro-5-(1H-imidazol-2-yl)phenyl]-4-(pyridin-2-ylmethoxy)benzamide]
  inhibition at 3 µM: 82.1%

## O=C(Nc1cc(-c2nc3ccccc3[nH]2)ccc1Cl)c1ccc(OCc2ccccn2)cc1 [Example 106, N-[5-(1H-benzimidazol-2-yl)-2-chlorophenyl]-4-(pyridin-2-ylmethoxy)benzamide]
  inhibition at 3 µM: 81.6%

## Cc1ccc(-c2ncc[nH]2)cc1NC(=O)c1ccc(C#Cc2ccccn2)cc1 [Example 107, N-[5-(1H-imidazol-2-yl)-2-methylphenyl]-4-(pyridin-2-ylethynyl)benzamide]
  inhibition at 3 µM: 92.3%

## Cc1ccc(-c2ncc[nH]2)cc1NC(=O)c1ccc(CCc2ccccn2)cc1 [Example 108, N-[5-(1H-imidazol-2-yl)-2-methylphenyl]-4-(2-pyridin-2-ylethyl)benzamide]
  inhibition at 3 µM: 92.4%

Reference: US20100311748A1, “HETEROCYCLIC AMIDES USEFUL FOR THE TREATMENT OF CANCER AND PSORIASIS” (ASTRAZENECA AB, priority 2007, published 2010)
